Results published in publication PMC9361468 (RSC Advances, 2022).
Like-named read-outs stand apart in the source and are kept apart here.

Columns and labels:
[1] = Experimental pKa, PROTAC precursors, mean ± SD of 3 experiments
[2] = Experimental pKa, common substituted piperazines, mean ± SD of 3 experiments

Row | Structure (SMILES) | % protonation state at pH = 7.5, NI: not-ionized state (PROTAC precursors) | % protonation state at pH = 7.5, P: single protonation state (PROTAC precursors) | pKa (physchem) | further results
1 | COC(=O)CCC(=O)N1CCN(CCNC(=O)Cc2c(C)n(C(=O)c3ccc(Cl)cc3)c3ccc(OC)cc23)CC1 [Compound 16] | NI: 98.73% | P: 1.27% | – | pKa (physchem; [1]): 5.61
2 | COc1ccc2c(c1)c(CC(=O)N1CCN(CCC(=O)N[C@H](C(=O)N3C[C@H](O)C[C@H]3C(=O)N[C@@H](C)c3ccc(-c4scnc4C)cc3)C(C)(C)C)CC1)c(C)n2C(=O)c1ccc(Cl)cc1 [PROTAC-6] | – | – | – | % protonation state at pH = 7.5, NI: not-ionized state (PROTACs): NI: 98.33%
3 | COc1ccc2c(c1)c(CC(=O)N1CCN(C)CC1)c(C)n2C(=O)c1ccc(Cl)cc1 [Compound 4] | NI: 78.79% | P: 21.20% | 6.93 ± 0.03 | –
4 | COC(=O)CCCCN1CCN(C(=O)Cc2c(C)n(C(=O)c3ccc(Cl)cc3)c3ccc(OC)cc23)CC1 [Compound 14] | NI: 72.91% | – | 7.07 ± 0.05 | –
5 | Cc1sc2c(c1C)C(c1ccc(Cl)cc1)=N[C@@H](CC(=O)N1CCN(C)CC1)c1nnc(C)n1-2 [Compound 2] | NI: 69.61% | P: 30.39% | 7.14 ± 0.02 | –
6 | C#CCN1CCN(C(=O)C[C@@H]2N=C(c3ccc(Cl)cc3)c3c(sc(C)c3C)-n3c(C)nnc32)CC1 [Compound 5] | NI: 99.74% | P: 0.26% | 4.91 ± 0.14 | –
7 | COc1ccc2c(c1)c(CC(=O)N1CCN(CCCC(C)=O)CC1)c(C)n2C(=O)c1ccc(Cl)cc1 [Compound 13] | NI: 84.90% | P: 15.09% | 6.75 ± 0.03 | –
8 | COc1ccc2c(c1)c(CC(=O)N1CCN(CCOCCO)CC1)c(C)n2C(=O)c1ccc(Cl)cc1 [Compound 17] | NI: 84.90% | P: 15.10% | 6.75 ± 0.14 | –
9 | C1CNCCN1 [Piperazine, reference compound] | – | – | – | % protonation state at pH = 7.5, DP: double protonation state: DP: 0.86%; % protonation state at pH = 7.5, NI: not-ionized state: NI: 0.67%; % protonation state at pH = 7.5, P: single protonation state: P: 98.48%
10 | COc1ccc2c(c1)c(CC(=O)NCCCN1CCN(CCCNC(=O)CCC(=O)N[C@H](C(=O)N3C[C@H](O)C[C@H]3C(=O)N[C@@H](C)c3ccc(-c4scnc4C)cc3)C(C)(C)C)CC1)c(C)n2C(=O)c1ccc(Cl)cc1 [PROTAC-8] | – | – | – | % protonation state at pH = 7.5, DP: double protonation state (PROTACs): DP: 0.02%; % protonation state at pH = 7.5, NI: not-ionized state (PROTACs): NI: 32.86%; pKa (physchem; Experimental pKa, PROTACs, mean ± SD of 3 experiments): 3.94
11 | COc1ccc2c(c1)c(CC(=O)N1CCN(CCC(C)=O)CC1)c(C)n2C(=O)c1ccc(Cl)cc1 [Compound 12] | NI: 97.07% | P: 2.93% | 5.98 ± 0.05 | –
12 | COc1ccc2c(c1)c(CC(=O)N1CCN(CC(C)=O)CC1)c(C)n2C(=O)c1ccc(Cl)cc1 [Compound 9] | – | P: 3.83% | 5.35 ± 0.04 | –
13 | CC(=O)N1CCNCC1 [1-Acetyl-piperazine, reference compound] | – | – | – | % protonation state at pH = 7.5, NI: not-ionized state (substituted piperazines): NI: 21.99%; % protonation state at pH = 7.5, P: single protonation state (substituted piperazines): P: 78.01%; pKa (physchem; [2]): 8.05 ± 0.02
14 | CC(=O)CN1CCN(C(=O)c2ccc3c(c2)nc(Nc2cccc(Cl)c2)c2ccncc23)CC1 [Compound 8] | NI: 99.71% | P: 0.29% | – | –
15 | CN1CCNCC1 [1-Methylpiperazine, reference compound] | – | – | – | % protonation state at pH = 7.5, DP: double protonation state (substituted piperazines): DP: 2.13%; % protonation state at pH = 7.5, NI: not-ionized state (substituted piperazines): NI: 0.32%; % protonation state at pH = 7.5, P: single protonation state (substituted piperazines): P: 97.55%; pKa (physchem; [2]): 9.16
16 | CC(=O)N1CCN(C)CC1 [1-Acetyl-4-methylpiperazine, reference compound] | – | – | – | % protonation state at pH = 7.5, NI: not-ionized state (substituted piperazines): NI: 73.36%; % protonation state at pH = 7.5, P: single protonation state (substituted piperazines): P: 26.64%; % protonation state at pH = 7.5, NI: not-ionized state (substituted piperazines, listed as 1-acetyl-4-methylpiperazine): 73.4%; pKa (physchem; [2]): 7.06
17 | COC(=O)CCCCCCN1CCN(C(=O)Cc2c(C)n(C(=O)c3ccc(Cl)cc3)c3ccc(OC)cc23)CC1 [Compound 15] | NI: 55.16% | – | 7.41 ± 0.08 | –
18 | CCN1CCNCC1 [1-Ethylpiperazine, reference compound] | – | – | – | % protonation state at pH = 7.5, DP: double protonation state (substituted piperazines): DP: 2.18%; % protonation state at pH = 7.5, NI: not-ionized state (substituted piperazines): NI: 0.34%; % protonation state at pH = 7.5, P: single protonation state (substituted piperazines): P: 97.48%; pKa (physchem; [2]): 5.04 ± 0.03
19 | CCOC(=O)CN1CCN(C(=O)Cc2c(C)n(C(=O)c3ccc(Cl)cc3)c3ccc(OC)cc23)CC1 [Compound 10] | NI: 99.9% | – | 4.5 ± 0.06 | –
20 | COc1ccc2c(c1)c(CC(=O)N1CCN(CCOCCOCC(=O)N[C@H](C(=O)N3C[C@H](O)C[C@H]3C(=O)N[C@@H](C)c3ccc(-c4scnc4C)cc3)C(C)(C)C)CC1)c(C)n2C(=O)c1ccc(Cl)cc1 [PROTAC-10] | – | – | – | % protonation state at pH = 7.5, NI: not-ionized state (PROTACs): NI: 94.44%
21 | CN1CCN(C)CC1 [1,4-Dimethylpiperazine, reference compound] | – | – | – | % protonation state at pH = 7.5, DP: double protonation state (substituted piperazines): DP: 0.02%; % protonation state at pH = 7.5, NI: not-ionized state (substituted piperazines): NI: 21.59%; % protonation state at pH = 7.5, P: single protonation state (substituted piperazines): P: 78.38%; pKa (physchem; [2]): ~8
22 | O=C(c1cc(Cc2n[nH]c(=O)c3ccccc23)ccc1F)N1CCN(Cc2ccccc2)CC1 [Compound 7] | NI: 97.07% | P: 2.93% | – | pKa (physchem; [1]): 5.98 ± 0.01
